Data from US4175081A, “5-Substituted thiadiazole ureas” (priority 1977, dated 1979).

Key:
[1] = tested on: Turnip (TP); assay: Post-emergence herbicide test; assay type: in vivo, Brassica sp.; settings: Brassica rapa, post-emergence, 336 h; 8 lb/acre; two weeks after treatment
Outline: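 A greenhouse post-emergence herbicide test on turnip. Seeds were sown on the surface of potting soil in 3' plastic pots, lightly covered with screened soil and watered from below. Planting was timed so seedlings had 1 or 2 true leaves above the cotyledons at spraying, done in a hood with a fixed nozzle. Control or injury was scored by eye after two weeks.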

[2] = tested on: Corn (CN); assay: Pre-emergence herbicide test; assay type: in vivo; settings: Zea mays, 336 h, 8 lb/acre, two weeks after treatment
Outline: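 Four corn seeds per pot, sown at seed-diameter depth one day before spraying, got soil surface treatment at 8 lbs/acre (4 lbs/acre formulations also prepared) in 38 gallons/acre. Pots were greenhouse-held with sub-irrigation only. Injury or control was scored visually two weeks after treatment.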

[3] = tested on: Barnyard grass (BG); assay: Post-emergence herbicide test; assay type: in vivo; settings: Echinochloa crus-galli, 336 h, 8 lb/acre, two weeks after treatment
Outline: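 Greenhouse pot-grown barnyard grass seedlings sprayed post-emergence at 8 lbs active compound per acre (some at 4 lbs/acre) in 38 gallons per acre, then sub-irrigated. Injury or control rated visually two weeks after treatment.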

[4] = tested on: Yellow foxtail grass (YF); assay: Pre-emergence herbicide test; assay type: in vivo, Setaria glauca; settings: Setaria, 336 h, 8 lb/acre, two weeks after treatment
Outline: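 Seeds surface-sown in potting soil one day before spraying; compounds applied pre-emergence at 8 or 4 lbs/acre in 38 gallons/acre spray. Pots held in greenhouse with sub-irrigation only. Injury or control rated visually two weeks after treatment.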

[5] = tested on: Cotton (CT); assay: Post-emergence herbicide test; assay type: in vivo, Gossypium hirsutum var. DPL smooth leaf; settings: Gossypium hirsutum, post-emergence, 336 h; 8 lb/acre; two weeks after treatment
Outline: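 Cotton (Gossypium hirsutum var. DPL smooth leaf) was grown in 3' plastic pots of potting soil, four seeds per pot, planted at a depth equal to the seed diameter and watered by sub-irrigation. At the stage of expanded cotyledons with the first true leaf 1' long, plants were sprayed post-emergence in a hood with a fixed nozzle over a moving belt. Percent control was rated visually two weeks later.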

[6] = tested on: Yellow foxtail grass (YF); assay: Post-emergence herbicide test; assay type: in vivo, Setaria glauca; settings: Setaria, 336 h, 8 lb/acre, two weeks after treatment
Outline: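 Potted seedlings grown in greenhouse, planting staggered to reach the target stage together, then sprayed post-emergence at 8 lbs actual compound/acre in 38 gallons/acre (4 lbs/acre formulations also prepared). Sub-irrigated afterwards. Injury or control rated visually two weeks after treatment.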

[7] = tested on: Bean (BN); assay: Post-emergence herbicide test; assay type: in vivo, Phaseolus vulgaris var. Black Valentine; settings: Phaseolus vulgaris, post-emergence, 336 h; 8 lb/acre; two weeks after treatment
Outline: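 Snapbean (Phaseolus vulgaris var. Black Valentine) was tested post-emergence. Four seeds were sown in 3' plastic pots of potting soil at a depth equal to the seed diameter, then sub-irrigated in greenhouse trays. Planting dates were staggered so plants were sprayed once primary leaves had expanded, with the growing point at the primary leaf nodes.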

[8] = tested on: Johnson grass (JG); assay: Post-emergence herbicide test; assay type: in vivo, Sorgum helepense; settings: Sorghum halepense, 336 h, 8 lb/acre, two weeks after treatment
Outline: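 Greenhouse pot-grown seedlings sprayed post-emergence at 8 lbs compound per acre (some at 4 lbs/acre) in 38 gallons per acre spray volume. Sub-irrigated thereafter. Injury/control rated visually two weeks after treatment.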

[9] = tested on: Barnyard grass (BG); assay: Pre-emergence herbicide test; assay type: in vivo; settings: Echinochloa crus-galli, 336 h, 8 lb/acre, two weeks after treatment
Outline: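 Barnyard grass surface-seeded in potting soil and sprayed pre-emergence one day after seeding, at 8 or 4 lb compound/acre in 38 gal/acre spray volume. Pots kept in greenhouse with sub-irrigation only; injury or control rated visually two weeks after treatment.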

[10] = tested on: Amaranth pigweed (PW); assay: Post-emergence herbicide test; assay type: in vivo, Amaranthus retroflexus; settings: 336 h, 8 lb/acre, two weeks after treatment
Outline: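 Pot-grown pigweed was sprayed post-emergence at the 1–2 true-leaf stage with compound at rates equivalent to 8 lbs per acre (formulations also prepared for 4 lbs/acre) in 38 gallons per acre, using a hood with fixed nozzle. Plants were sub-irrigated in the greenhouse, and injury or control was rated visually two weeks after treatment.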

[11] = tested on: Johnson grass (JG); assay: Pre-emergence herbicide test; assay type: in vivo, Sorgum helepense; settings: Sorghum halepense, 336 h, 8 lb/acre, two weeks after treatment
Outline: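 Pots seeded one day before spraying; compound applied pre-emergence at 8 lbs/acre (or 4 lbs/acre) in 38 gallons/acre spray volume. Sub-irrigated in greenhouse; injury/control rated visually two weeks after treatment.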

[12] = tested on: Bean (BN); assay: Pre-emergence herbicide test; assay type: in vivo, Phaseolus vulgaris var. Black Valentine; settings: Phaseolus vulgaris, 336 h, 8 lb/acre, two weeks after treatment
Outline: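 Black Valentine bean was seeded in potting soil one day before spraying. Compound was applied pre-emergence at 8 lbs/acre (also 4 lbs/acre) in 38 gallons per acre. Plants were sub-irrigated and injury or control was rated visually after two weeks.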

[13] = tested on: variety of crops and weed species; assay: Pre- and post-emergence herbicide tests, overall assessment of Tables III-VI; assay type: in vivo; settings: data of Tables III-VI
Method: All crop and weed species were planted individually in 3' plastic pots containing potting soil. Four seeds each of corn, cotton, and snapbeans were seeded to a depth equal to the diameter of the seed. All other species were surface seeded and sprinkled with screened soil in an amount sufficient to cover the seed. Immediately after planting, all pots were watered by sub-irrigation in greenhouse trays. Pots for the pre-emergence phase were seeded one day before treatment.
Compounds were tested at rates of application equivalent to 8 lbs. of actual compound per acre in a spray volume of 38 gallons per acre. Spray hood constants required to deliver the above volume are as follows:
Two weeks after treatment, pre- and post-emergence injury or control was visually rated, and the results were as shown in the following tables. Pre-emergence data are provided in TABLE III and post-emergence data are provided in TABLE IV, for compounds having the formula illustrated in TABLE I. Correspondingly, pre-emergence and post-emergence data, respectively, are set forth in TABLES V AND VI, for compounds having the formula illustrated in TABLE II.

[14] = tested on: Turnip (TP); assay: Pre-emergence herbicide test; assay type: in vivo, Brassica sp.; settings: Brassica rapa, pre-emergence, 336 h; 8 lb/acre; two weeks after treatment
Outline: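 Turnip (Brassica sp.) seeds were surface sown in 3' plastic pots of potting soil, covered with a thin layer of screened soil, and sub-irrigated in greenhouse trays. Pots were seeded one day ahead of treatment, sprayed pre-emergence under a hood with a fixed nozzle and moving belt, then kept in the greenhouse.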

[15] = tested on: Crabgrass (CG); assay: Pre-emergence herbicide test; assay type: in vivo, Digitaria sanquinalis; settings: Digitaria sanguinalis, pre-emergence, 336 h; 8 lb/acre; two weeks after treatment
Outline: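 Crabgrass (Digitaria sanquinalis) was surface seeded in 3' plastic pots of potting soil, covered with screened soil, and watered by sub-irrigation in greenhouse trays. Pots were seeded one day before spraying in a hood with a moving belt and fixed nozzle. Plants stayed in the greenhouse on sub-irrigation, and pre-emergence control was rated visually two weeks after treatment.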

[16] = tested on: Crabgrass (CG); assay: Post-emergence herbicide test; assay type: in vivo, Digitaria sanquinalis; settings: Digitaria sanguinalis, post-emergence, 336 h; 8 lb/acre; two weeks after treatment
Outline: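 Crabgrass (Digitaria sanquinalis) was surface seeded individually in 3' plastic pots of potting soil, covered with screened soil, and watered by sub-irrigation in greenhouse trays. Planting was staggered so seedlings reached the target stage together. Post-emergence sprays were applied in a hood with a removable belt and fixed nozzle, and control was visually rated two weeks after treatment.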

[17] = tested on: Cotton (CT); assay: Pre-emergence herbicide test; assay type: in vivo, Gossypium hirsutum var. DPL smooth leaf; settings: Gossypium hirsutum, 336 h, 8 lb/acre, two weeks after treatment
Outline: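 Crop and weed species seeded one day before treatment, then sprayed pre-emergence at 8 lbs actual compound per acre (also 4 lbs/acre formulations) in 38 gallons per acre. Pots kept in greenhouse with sub-irrigation only; injury or control visually rated two weeks after treatment.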

[18] = tested on: Corn (CN); assay: Post-emergence herbicide test; assay type: in vivo; settings: Zea mays, 336 h, 8 lb/acre, two weeks after treatment
Outline: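 Greenhouse seedlings grown in potting soil and sprayed post-emergence at 8 lbs compound/acre (formulations also made for 4 lbs/acre) in 38 gallons/acre spray volume. Watering by sub-irrigation only. Injury or control rated visually two weeks after treatment.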

| SMILES | pest or weed control at 8966.8 g/ha [1] | pest or weed control at 8966.8 g/ha [2] | pest or weed control at 8966.8 g/ha [3] | pest or weed control at 8966.8 g/ha [4] | pest or weed control at 8966.8 g/ha [5] | pest or weed control at 8966.8 g/ha [6] | pest or weed control at 8966.8 g/ha [7] | pest or weed control at 8966.8 g/ha [8] | pest or weed control at 8966.8 g/ha [9] | pest or weed control at 8966.8 g/ha [10] | pest or weed control at 8966.8 g/ha [11] | pest or weed control at 8966.8 g/ha [12] | herbicidal effectiveness / selectivity, in words [13] | pest or weed control at 8966.8 g/ha [14] | pest or weed control at 8966.8 g/ha [15] | pest or weed control at 8966.8 g/ha [16] | pest or weed control at 8966.8 g/ha [17] | pest or weed control at 8966.8 g/ha [18] |
| --- | --- | --- | --- | --- | --- | --- | --- | --- | --- | --- | --- | --- | --- | --- | --- | --- | --- | --- |
| CCNC(=O)Nc1nnc(C(F)(F)F)s1 [Example 9] | 60% | 50% | 40% | 20% | 50% | 30% | 70% | 80% | 20% | 100% | 10% | 100% | more selective when applied to a certain crop or weed species | 10% | 10% | 60% | 30% | 30% |
| O=C(Nc1ccc(Cl)cc1)Nc1nnc(C(F)(F)F)s1 [Example 15] | 50% | 10% | 20% | 10% | 60% | 20% | 40% | 20% | 10% | 100% | 10% | 30% | more selective when applied to a certain crop or weed species | 10% | 10% | 30% | 80% | 20% |
